Patent publication US4849424A, “Pyrimidine derivatives” (Nissin Shokuhin Kabushiki Kaisha, priority 1986, dated 1989)

Key:
gastric lesions = test: HCl-ethanol-induced gastric lesions in rats (cytoprotective effect); assay type: in vivo, Male Sprague-Dawley rats; conditions: Rattus norvegicus, po; for ED50: 30 minutes before HCl-ethanol; for inhibition in vivo at 10 mg/kg: 10 mg/kg p.o. in 1% CMC, 30 minutes before 150 mM HCl-60% ethanol, 3 rats per group, lesions measured 1 hour later, read-out: Inhibition (inhibitory rate of ulcer length vs control)
Experimental: Male Sprague-Dawley rats (body weight: 220-240 g, 7 weeks) were deprived of food but allowed free access to water for 24 hours prior to the experiments. Each control and experimental group consisted of 3 rats. One hundred and fifty mM HCl-60% ethanol (v/v) was given p.o. in a volume of 1 ml/rat. The animals were sacrificed 1 hour later, and the stomach was removed and inflated by injecting 10 ml of 2% formalin to fix the inner and outer layers of the gastric walls. Subsequently, the stomach was incised along the greater curvature and washed gently with ice-cold saline.
Gastric lesions were identified in the grandular portion. The length of lesions was measured in millimeters (mm) under a dissecting microscope with a square grid (×10), and lesion severity was expressed as the total length of lesions per stomach.
Test compound (I) (10 mg/kg), suspended in 1% carboxymethyl cellulose (CMC), or 1% carboxymethyl cellulose for the control was orally administered 30 minutes before HCl-ethanol administration. The ulcer length of the treated group and the control group were compared and the inhibitory rates were calculated.

[1] = Oral acute toxicity (LD50) in rats; conditions: rat, in vivo, 0.3% CMC-Na suspension, 72 hours observation, 10 rats per group, Probit method
Experimental: A 0.3% CMC-Na suspension of a test compound was orally administered to groups of Slc:Wistar/KY rats (male: 90-120 g), each group consisting of 10 rats. […] LD50 values were calculated by the Probit method to be as follows: […]

ulcer = test: Restraint-immersion stress ulcer in rats (anti-stress ulcer activity); assay type: in vivo, Male Sprague-Dawley rats; conditions: 32 mg/kg p.o. in 0.1% MC, 5 minutes before restraint-immersion for 7 hours at 22° C.
Experimental: Male Sprague-Dawley rats (body weight: 230-280 g) were placed under restraint in a stress cage after fasting for 15 hours, and immersed vertically in the water bath kept at 22° C. to the level of the xiphoid of the animal. After restraint-immersion for 7 hours the animals were killed, and the stomach from each animal was fixed with formalin.
Each stomach was opened by cutting along the greater curvature, and ulcer area (mm^2) was measured with a stereoscopic microscope. Ulcer indices of the treated group and the control group were compared, and inhibitory rates were calculated. The tested compound, either 4,6-bis(1-pyrazolyl) pyrimidine (32 mg/kg) suspended in 0.1% methylcellulose (MC) or 0.1% methylcellulose (MC) alone, was orally administered 5 minutes before the restraint-immersion.

| Structure (SMILES) | ED50 (gastric lesions) [mg/kg] | inhibition in vivo at 10 mg/kg (gastric lesions) [%] | LD50 at 72 h [1] [mg/kg] | Inhibition (inhibitory rate of ulcer index vs control) (ulcer) [%] |
| --- | --- | --- | --- | --- |
| c1cnn(-c2cc(-n3cccn3)ncn2)c1 [Example 1, 4,6-Bis(1-pyrazolyl)pyrimidine] | 0.72 | 95.6 | > 3000 | 73.6 |
| c1cn(-c2ccnc(-n3ccnc3)n2)cn1 [Example 4, 2,4-Bis(1-imidazolyl)pyrimidine] | – | 78.2 | – | – |
| COc1cc(C)nc(-n2cccn2)n1 [Example 6, 4-Methoxy-6-methyl-2-(1-pyrazolyl)pyrimidine] | – | 87.2 | – | – |
| COc1cc(C)nc(-n2ccnc2)n1 [Example 7, 2-(1-Imidazolyl)-4-methoxy-6-methylpyrimidine] | – | 82.6 | – | – |
| COc1nc(C)cc(-n2cncn2)n1 [Example 9, 2-Methoxy-6-methyl-4-(1,2,4-triazol-1-yl)pyrimidine] | – | 75.7 | – | – |
| CCOc1cc(C)nc(-n2ccnc2)n1 [Example 10, 4-Ethoxy-2-(1-imidazolyl)-6-methylpyrimidine] | – | 80.7 | – | – |
| CCOc1cc(C)nc(-n2cccn2)n1 [Example 11, 4-Ethoxy-6-methyl-2-(1-pyrazolyl)pyrimidine] | – | 78.3 | – | – |
| COc1cc(-n2cccn2)ncn1 [Example 15, 6-Methoxy-4-(1-pyrazolyl)pyrimidine] | – | 95.6 | – | – |
| COc1cc(-n2ccnc2)ncn1 [Example 16, 4-(1-Imidazolyl)-6-methoxypyrimidine] | 5.6 | 91.3 | 400 | – |
| CC(C)Oc1cc(-n2cccn2)ncn1 [Example 17, 6-Isopropoxy-4-(1-pyrazolyl)pyrimidine] | – | 79.8 | – | – |
| c1cnn(-c2cc(N3CCCCC3)ncn2)c1 [Example 19, 6-Piperidino-4-(1-pyrazolyl)pyrimidine] | – | 79.2 | – | – |
